# Laboratory results as given in patent publication US20140274782A1, “AFFINITY REAGENTS AND METHODS FOR DETECTION, PURIFICATION, AND PROTEOMIC ANALYSIS OF METHYLATED PROTEINS” (The Board of Trustees of the Leland Stanford Junior …, priority 2013, published 2014).
# System: 3×MBT domain of L3MBTL1
# Assay: SILAC proteomic pull-down 3×MBT vs 3×MBTD355N from 293T nuclear extract, LC-MS/MS
# Assay type: binding, human
# Conditions: SILAC ratio, 293T nuclear extract pull-down; * = protein identified in only one labeling experiment
# Procedure: Protein pull-downs were performed as described above using 600 μg of nuclear extract prepared with isotopic labels as indicated. After eluting with glutathione, 3×MBT domain was removed by dialysis into high salt and rebinding to GSH-sepharose. Bound proteins were separated by SDS-PAGE and analyzed by in-gel tryptic digest followed by LC-MS/MS. Peptides were identified using MaxQuant version 1.2.2.5 (Cox and Mann (2008) Nat. Biotechnol. 26, 1367-1372) and candidate methylated peptides were verified by manual inspection.
# For stable isotope labeling by amino acids in cell culture (SILAC) experiments HEK 293T cells were grown for at least six doublings in DMEM for SILAC supplemented with 10% dialyzed fetal bovine serum (FBS), 230 mg/L L-proline and either 100 mg/L each of L-lysine and L-arginine (“light” medium), D4-L-lysine and ^13C6-L-arginine (“medium” media), or ^13C6^15N2-L-lysine and ^13C6^15N4-L-arginine (Thermo Scientific). Heavy methyl labeling used DMEM without L-Methionine or L-Cysteine supplemented with D3^13C-L-Methionine (Sigma), L-Cysteine (Sigma) and 10% dialyzed FBS.
# 600 μg of nuclear extract was incubated overnight rotating at 4° C. with 20 μl packed 3×MBT or 3×MBTD355N beads in a total volume of 250 μL with binding buffer. Supernatant was removed and saved for use as a loading control. Beads were washed 4×5 minutes with 0.5 mL binding buffer. Protein was eluted by incubating in 20 μL elution buffer (10 mg/mL glutathione in 50 mM Tris pH 8.0) rotating at 4° C. for four hours. Elutions from 3×MBT and 3×MBTD355N were combined and dialyzed overnight at 4° C. against 10,000× volume of dissociation buffer (50 mM Tris pH 7.5, 750 mM NaCl) in a 0.1 mL Slide-A-Lyzer MINI Dialysis Device with 3.5K molecular weight cutoff (Thermo Scientific). 80 μL of GSH-Sepharose was prepared by washing briefly three times with 0.5 mL binding buffer. Dialyzed proteins were added to the GSH-Sepharose and incubated 4 hours rotating at 4° C. to deplete the GST-fusion domains. Supernatant was transferred to a fresh 1.5 mL tube. Proteins were separated by SDS-PAGE on a 10% polyacrylamide gel and stained using SilverQuest Silver Staining Kit (Life Technologies). Lanes were excised, residual 3×MBT band was removed, and gel was diced into 0.5 mm cubes. Gel pieces were destained and processed by in-gel digestion (Carlson et al. (2011) Science Signaling 4) with sequencing grade trypsin (Promega) and the peptide sample was dried completely in a vacuum centrifuge. To prepare a loading control, 2 μL each of light and heavy nuclear extract were combined, 6 μL of 8M urea was added, proteins were denatured by adding 2 μL of 100 mM dithiothreitol in digest buffer (50 mM ammonium bicarbonate) and heating to 60° C. for 1 hour, cysteine was alkylated by adding 2.2 μL 100 mg/mL iodoacetamide in digest buffer and incubating 1 hour at room temperature in darkness, and proteins were digested by adding 80 μL trypsin (Promega) at 12.5 ng/μL in digest buffer and incubating overnight at room temperature in darkness. Digestion was stopped by adding 10 μL of 10% formic acid.
# Each experiment consisted of two sets of pull-downs: “forward” labeling with 3×MBT incubated with light nuclear extract and 3×MBTD355N with medium extract, and a second “reverse” labeling experiment with the label conditions swapped. Proteins were included in the results if they were quantified in both labeling directions. To determine reproducibility the entire experiment including the label swap was duplicated using independent protein preparations and a mass spectrometer at another institution.
# For 3×MBT pull-down experiment #1 the gel lane was processed and peptides were loaded off-line onto a first dimension trap column (Waters Xbridge, C18, 10 μm particle size, 100 Å pore size, 5 cm packing length, 150 μm column i.d.). […]
row,Substance,Protein Ratio 3xMBT/D355N
1,SSRP1: protein with methylated lysine identified in 3xMBT pull-down,14.6
2,DNA ligase 1,10.7
3,MCM7: protein with methylated lysine identified in 3xMBT pull-down,6.7
4,Protein Wiz,5.3
5,RBM25: protein with methylated lysine identified in 3xMBT pull-down,7.7
6,MSH6: protein with methylated lysine identified in 3xMBT pull-down,1.2
